# What was measured:
# [1] = target: human TLR7 (hTLR7) (Homo sapiens (Human), UniProt Q9NYK1); assay: HEK TLR7 assay (HEK-Blue hTLR7 cells, NF-kB/AP-1 SEAP reporter); assay type: cell-based; settings: HEK-Blue hTLR7 cells, 16 h incubation, SEAP read at 620-655 nm
# Description: HEK-Blue™ TLR7 cells were purchased from Invivogen (San Diego, Calif.). The following description was taken from the product information sheet.
# “HEK-Blue™ hTLR7 cells are designed for studying the stimulation of human TLR7 (hTLR7) by monitoring the activation of NF-kB. HEK-Blue™ hTLR7 cells were obtained by co-transfection of the hTLR7 gene and an optimized secreted embryonic alkaline phosphatase (SEAP) reporter gene into HEK293 cells. The SEAP reporter gene is placed under the control of the IFN-b minimal promoter fused to five NF-kB and AP-1-binding sites. Stimulation with a TLR7 ligand activates NF-kB and AP-1 which induce the production of SEAP, which is detected by the HEK-Blue™ Detection cell culture medium.”
# A typical assay protocol involved the following steps: • 1. Cells were cultured according to the product information sheet. • 2. 10 mM compound stock in DMSO were first diluted to 3 mM and then 3-fold serially diluted using DMSO to afford a 10-pt dilution. • 3. 3 μl of the diluted DMSO were added to 57 μl HEK-Blue™ Detection media for a further 20-fold dilution. • 4. 10 μl of the diluted compound in assay media were added into 40 μl cell culture (in HEK-Blue™ Detection media) in 384-well plate. Final cell concentration=8,000 cells per well. • 5. The plates were incubated at 37° C. in 5% CO2 for 16 h. SEAP was determined using a spectrophotometer at 620-655 nm.
# [2] = Pharmacokinetics experiments: mouse liver-to-serum concentration (L:S); assay type: in vivo; settings: BALB/c mice, 10 mg/kg p.o., 5 hour post dose
# Procedure: BALB/c mice were dosed p.o. with 10 mg/kg compound formulated in 0.5% carboxy methycellulose+0.5% Tween-80 suspension. Mice were bled retro-orbitally at different time points post dose. Blood was processed into serum by centrifugation followed by protein precipitation, reverse-phase gradient elution and MRM detection via ESI+mass spectrometry to determine compound concentration. Animals were sacrificed after the final blood collection (5 hour), liver removed and flash frozen in liquid nitrogen for tissue PK analyses. The liver-to-serum concentration (L:S) at 5 hour post dose is one parameter for identifying compounds with potential enrichment in liver.
# Mouse liver-to-serum concentration (L:S) table below provides results.
# human TLR7 (hTLR7), sequence (Q9NYK1 27-1049): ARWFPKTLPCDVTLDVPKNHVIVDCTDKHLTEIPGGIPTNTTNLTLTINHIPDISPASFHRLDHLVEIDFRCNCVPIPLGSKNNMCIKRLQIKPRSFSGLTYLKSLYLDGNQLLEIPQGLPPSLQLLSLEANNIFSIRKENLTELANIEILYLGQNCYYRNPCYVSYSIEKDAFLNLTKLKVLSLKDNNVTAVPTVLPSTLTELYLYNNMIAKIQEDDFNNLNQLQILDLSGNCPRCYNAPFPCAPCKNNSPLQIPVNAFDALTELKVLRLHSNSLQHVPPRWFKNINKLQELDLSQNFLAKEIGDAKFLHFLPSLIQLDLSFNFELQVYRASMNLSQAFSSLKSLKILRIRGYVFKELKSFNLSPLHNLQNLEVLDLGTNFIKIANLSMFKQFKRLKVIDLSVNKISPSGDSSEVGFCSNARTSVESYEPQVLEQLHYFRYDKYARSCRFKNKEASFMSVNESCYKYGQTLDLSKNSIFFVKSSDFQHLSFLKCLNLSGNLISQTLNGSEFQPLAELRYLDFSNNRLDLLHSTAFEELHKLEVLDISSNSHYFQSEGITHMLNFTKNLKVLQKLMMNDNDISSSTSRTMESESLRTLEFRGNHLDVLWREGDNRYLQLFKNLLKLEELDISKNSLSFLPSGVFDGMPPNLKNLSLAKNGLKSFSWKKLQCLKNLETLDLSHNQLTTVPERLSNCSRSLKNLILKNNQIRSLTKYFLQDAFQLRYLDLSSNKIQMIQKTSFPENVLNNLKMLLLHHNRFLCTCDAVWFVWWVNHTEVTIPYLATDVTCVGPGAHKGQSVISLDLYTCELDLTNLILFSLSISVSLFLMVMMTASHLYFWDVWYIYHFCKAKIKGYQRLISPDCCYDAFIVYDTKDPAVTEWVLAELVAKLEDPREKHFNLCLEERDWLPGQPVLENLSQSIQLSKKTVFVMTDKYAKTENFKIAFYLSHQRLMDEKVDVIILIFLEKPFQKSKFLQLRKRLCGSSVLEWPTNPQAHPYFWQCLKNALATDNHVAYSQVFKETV
Structure (SMILES),EC50 [1],L:S at 5 hr (liver-to-serum concentration) [2]
"CCCC[C@@H](CCSC)Nc1nc(N)nc(C)c1Cc1cc(C(C)(C)C(=O)O)ccc1OC [Compound 33, (S)-2-(3-((2-amino-4-methyl-6-((1-(methylthio)heptan-3-yl)amino)pyrimidin-5-yl)methyl)-4-methoxyphenyl)-2-methylpropanoic acid]",< 100 nM,A (A = >100 represents high liver-enrichment)
"CCCCNc1nc(N)nc(C)c1Cc1cc(S(=O)(=O)O)ccc1OC [Compound 17, 3-((2-amino-4-(butylamino)-6-methylpyrimidin-5-yl)methyl)-4-methoxybenzenesulfonic acid]",< 100 nM,B (B = 10-100 represents moderate liver-enrichment)
"CCCCNc1nc(N)nc(C)c1Cc1cc(-c2nn[nH]n2)ccc1OC [Compound 11, N4-butyl-5-(2-methoxy-5-(2H-tetrazol-5-yl)benzyl)-6-methylpyrimidine-2,4-diamine]",100 to 1000 nM,A (A = >100 represents high liver-enrichment)
"CCCC[C@@H](CCO)Nc1nc(N)nc(C)c1Cc1cc(Cc2nn[nH]n2)ccc1OC [Compound 18, (S)-3-((5-(5-((2H-tetrazol-5-yl)methyl)-2-methoxybenzyl)-2-amino-6-methylpyrimidin-4-yl)amino)heptan-1-ol]",< 100 nM,A (A = >100 represents high liver-enrichment)
"CCCC[C@@H](CCSC)Nc1nc(N)nc(C)c1Cc1cc(-c2nn[nH]n2)ccc1OC [Compound 34, (S)-5-(2-methoxy-5-(2H-tetrazol-5-yl)benzyl)-6-methyl-N^4-(1-(methylthio)heptan-3-yl)pyrimidine-2,4-diamine]",< 100 nM,A (A = >100 represents high liver-enrichment)
"CCCCNc1nc(N)nc(CCC(=O)O)c1Cc1ccccc1OC [Compound 15, 3-(2-amino-6-(butylamino)-5-(2-methoxybenzyl)pyrimidin-4-yl)propanoic acid]",100 to 1000 nM,B (B = 10-100 represents moderate liver-enrichment)
"CCCCNc1nc(N)nc(C)c1Cc1cc(P(=O)(O)O)ccc1OC [Compound 12, (3-((2-amino-4-(butylamino)-6-methylpyrimidin-5-yl)methyl)-4-methoxyphenyl)phosphonic acid]",100 to 1000 nM,B (B = 10-100 represents moderate liver-enrichment)
"CCCCNc1nc(N)nc(C)c1Cc1cc(C(=O)NCCCP(=O)(O)O)ccc1OC [Compound 30, (3-(3-((2-amino-4-(butylamino)-6-methylpyrimidin-5-yl)methyl)-4-methoxybenzamido)propyl)phosphonic acid]",100 to 1000 nM,A (A = >100 represents high liver-enrichment)
"CCCCNc1nc(N)nc(C)c1Cc1cc(B(O)O)ccc1OC [Compound 24, (3-((2-amino-4-(butylamino)-6-methylpyrimidin-5-yl)methyl)-4-methoxyphenyl)boronic acid]",< 100 nM,B (B = 10-100 represents moderate liver-enrichment)
"CCCCNc1nc(N)nc(C)c1Cc1cc(C2(c3nn[nH]n3)CC2)ccc1OC [Compound 13, 5-(5-(1-(2H-tetrazol-5-yl)cyclopropyl)-2-methoxybenzyl)-N4-butyl-6-methylpyrimidine-2,4-diamine]",100 to 1000 nM,B (B = 10-100 represents moderate liver-enrichment)
"CCCC[C@@H](CCOC)Nc1nc(N)nc(C)c1Cc1cc(Cc2nn[nH]n2)ccc1OC [Compound 32, (S)-5-(5-((2H-tetrazol-5-yl)methyl)-2-methoxybenzyl)-N^4-(1-methoxyheptan-3-yl)-6-methylpyrimidine-2,4-diamine]",< 100 nM,A (A = >100 represents high liver-enrichment)
"CCCC[C@@H](CC(=O)O)Nc1nc(N)nc(CCC(=O)O)c1Cc1ccccc1OC [Compound 29, (S)-3-((2-amino-6-(2-carboxyethyl)-5-(2-methoxybenzyl)pyrimidin-4-yl)amino)heptanoic acid]",100 to 1000 nM,A (A = >100 represents high liver-enrichment)
"CCCCNc1nc(N)nc(C)c1Cc1cc(C(C)(C)c2nn[nH]n2)ccc1OC [Compound 10, 5-(5-(2-(2H-tetrazol-5-yl)propan-2-yl)-2-methoxybenzyl)-N4-butyl-6-methylpyrimidine-2,4-diamine]",100 to 1000 nM,B (B = 10-100 represents moderate liver-enrichment)
"CCCCNc1nc(N)nc(C)c1Cc1cc(C(C)(C)C(=O)O)ccc1OC [Compound 9, 2-(3-((2-amino-4-(butylamino)-6-methylpyrimidin-5-yl)methyl)-4-methoxyphenyl)-2-methylpropanoic acid]",100 to 1000 nM,A (A = >100 represents high liver-enrichment)

# Second part, led by results:
EC50 [1],Structure (SMILES),L:S at 5 hr (liver-to-serum concentration) [2]
100 to 1000 nM,"CCCCNc1nc(N)nc(CCC(=O)O)c1Cc1cc(Cc2nn[nH]n2)ccc1OC [Compound 40, 3-(5-(5-((2H-tetrazol-5-yl)methyl)-2-methoxybenzyl)-2-amino-6-(butylamino)pyrimidin-4-yl)propanoic acid]",A (A = >100 represents high liver-enrichment)
1000 to 10000 nM,"CCCC[C@@H](CC(=O)O)Nc1nc(N)nc(CCC(=O)O)c1Cc1cc(C(C)(C)C(=O)O)ccc1OC [Compound 45, (S)-3-((2-amino-6-(2-carboxyethyl)-5-(5-(2-carboxypropan-2-yl)-2-methoxy-benzyl)pyrimidin-4-yl)amino)heptanoic acid]",A (A = >100 represents high liver-enrichment)
100 to 1000 nM,"CCCC[C@@H](CC(=O)O)Nc1nc(N)nc(CCC(=O)O)c1Cc1cc(Cc2nn[nH]n2)ccc1OC [Compound 46, (S)-3-((5-(5-((2H-tetrazol-5-yl)methyl)-2-methoxybenzyl)-2-amino-6-(2-carboxyethyl)-pyrimidin-4-yl)amino)heptanoic acid]",B (B = 10-100 represents moderate liver-enrichment)
100 to 1000 nM,"CCCC[C@@H](CC(=O)O)Nc1nc(N)nc(C)c1Cc1ccccc1OC [Compound 41, (S)-3-((2-amino-5-(2-methoxybenzyl)-6-methylpyrimidin-4-yl)amino)heptanoic acid]",B (B = 10-100 represents moderate liver-enrichment)
100 to 1000 nM,"CCCC[C@@H](CC(=O)O)Nc1nc(N)nc(C)c1Cc1cc(C(C)(C)C(=O)O)ccc1OC [Compound 42, (S)-3-((2-amino-5-(5-(2-carboxypropan-2-yl)-2-methoxybenzyl)-6-methylpyrimidin-4-yl)amino)heptanoic acid]",A (A = >100 represents high liver-enrichment)
100 to 1000 nM,"CCCC[C@@H](CC(=O)O)Nc1nc(N)nc(C)c1Cc1cc(C(=O)NCCCP(=O)(O)O)ccc1OC [Compound 44, (S)-3-((2-amino-5-(2-methoxy-S-((3-phosphonopropyl)carbamoyl)benzyl)-6-methyl-pyrimidin-4-yl)amino)heptanoic acid]",B (B = 10-100 represents moderate liver-enrichment)
1000 to 10000 nM,"CCCCNc1nc(N)nc(CCC(=O)O)c1Cc1cc(C(C)(C)C(=O)O)ccc1OC [Compound 43, 2-(3-((2-amino-4-(butylamino)-6-(2-carboxyethyl)pyrimidin-5-yl)methyl)-4-methoxy-phenyl)-2-methylpropanoic acid]",A (A = >100 represents high liver-enrichment)
